This passage reports IC50 results from patent US8865894B2, “Oxazolidin-2-one compounds and uses thereof” (Novartis AG, priority 2012, dated 2014).

Structures are written as SMILES.

In this experiment the target is T1, human PI3Kδ (Homo sapiens, UniProt O00329).
T1 construct: made in house
T1 sequence (O00329 2-1044 limits assumed): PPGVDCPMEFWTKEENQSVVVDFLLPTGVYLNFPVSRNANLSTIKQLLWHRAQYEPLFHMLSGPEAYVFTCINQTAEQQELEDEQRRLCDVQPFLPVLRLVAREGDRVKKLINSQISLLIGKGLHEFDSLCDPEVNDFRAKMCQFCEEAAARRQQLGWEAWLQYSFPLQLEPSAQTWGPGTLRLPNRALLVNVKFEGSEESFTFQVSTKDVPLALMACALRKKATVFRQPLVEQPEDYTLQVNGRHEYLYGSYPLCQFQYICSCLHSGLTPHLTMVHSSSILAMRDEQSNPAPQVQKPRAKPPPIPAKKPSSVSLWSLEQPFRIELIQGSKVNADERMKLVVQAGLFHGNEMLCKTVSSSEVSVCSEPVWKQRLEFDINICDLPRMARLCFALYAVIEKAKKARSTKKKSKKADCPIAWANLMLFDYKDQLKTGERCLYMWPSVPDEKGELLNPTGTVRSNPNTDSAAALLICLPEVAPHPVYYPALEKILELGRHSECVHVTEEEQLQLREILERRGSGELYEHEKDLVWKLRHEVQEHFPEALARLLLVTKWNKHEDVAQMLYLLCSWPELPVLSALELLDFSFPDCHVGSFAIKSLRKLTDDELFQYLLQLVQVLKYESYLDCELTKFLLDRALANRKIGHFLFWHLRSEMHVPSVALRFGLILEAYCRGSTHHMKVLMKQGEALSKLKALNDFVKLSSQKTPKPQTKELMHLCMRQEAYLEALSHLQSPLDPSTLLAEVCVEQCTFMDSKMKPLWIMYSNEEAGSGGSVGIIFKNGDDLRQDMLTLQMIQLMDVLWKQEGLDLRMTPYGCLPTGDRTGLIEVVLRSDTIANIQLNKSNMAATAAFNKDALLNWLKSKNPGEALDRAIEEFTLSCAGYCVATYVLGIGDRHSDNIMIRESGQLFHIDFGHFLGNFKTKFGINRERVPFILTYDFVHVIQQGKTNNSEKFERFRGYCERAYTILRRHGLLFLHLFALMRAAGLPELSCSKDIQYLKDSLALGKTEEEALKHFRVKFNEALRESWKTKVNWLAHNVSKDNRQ
Put plainly: Biochemical PI3Kdelta (TR-FRET Adapta Universal Kinase Assay). The conditions noted are these: mean of n measurements, read-out: PIK3d/ IC50. The procedure:
Test compounds were dissolved in DMSO (10 mM) and transferred into 1.4 mL flat bottom or V-shaped Matrix tubes carrying a unique 2D matrix chip by individual Novartis compound hubs. The numbers of these chips were distinctively linked to Novartis Pharma Numbers. The stock solutions were stored at −20° C. if not used immediately. For the test procedure the vials were defrosted and identified by a scanner whereby a working sheet was generated that guided the subsequent working steps.
Compounds were either manually diluted in DMSO for individual experiments (96 wells enabling 10 cpds at 8 (single points) concentrations) as described in or prepared as described below if tested for profiling in 384-wells. This format enabled the assay of maximally 40 individual test compounds at 8 concentrations (single points) including 4 reference compounds. The dilution protocol included the production of “pre-dilution plates”, “master plates” and “assay plates”.
96 polypropylene well plates were used as pre-dilution plates. A total of 4 pre-dilution plates were prepared including 10 test compounds each on the plate positions A1-A10, one standard compound at A11 and one DMSO control at A12. Programs have been written to run these pipetting steps on the HamiltonSTAR robots.
Identical “assay plates” were then prepared by pipetting 50 nL each of compound dilutions of the “master plates” into 384-well “assay plates”. The compounds were mixed with 4.5 μL of assays components plus 4.5 μL enzyme corresponding to a 1:181 dilution enabling the final concentration of 10, 3.0, 1.0, 0.3, 0.1, 0.03, 0.01 and 0.003 μM, respectively. The preparation of the “master plates” was handled by the Matrix PlateMate Plus robot and replication of “assay plates” by the HummingBird robot.
Catalytically active human PI3Kα, PI3Kβ, PI3Kδ, and mTOR were cloned, expressed and purified as described (Maira S M, Stauffer F, Brueggen J, Furet P, Schnell C, Fritsch C, Brachmann S, Chène P, de Pover A, Schoemaker K, Fabbro D, Gabriel D, Simonen M, Murphy L, Finan P, Sellers W, García-Echeverría C (2008), Mol Cancer Ther. 7:1851-63 and Maira S M, Pecchi S, Brueggen J, Huh K, Schnell C, Fritsch C, Nagel T, Wiesmann M, Brachmann S, Dorsch M, Chène P, Schoemaker K, De Pover A, Menezes D, Fabbro D, Sellers W, García-Echeverría C, Voliva C F (2011), Mol. Cancer Ther. accepted).
The TR-FRET Adapta™ Universal Kinase Assay Kit was purchased from Invitrogen Corporation (Carlsbad/CA, USA) (Cat. No. PV5099). The kit contains the following reagents: Adapta Eu-anti-ADP Antibody (Europium labeled anti-ADP antibody in HEPES buffered saline, Cat. No. PV5097), Alexa Fluor® 647-labeled ADP tracer (Alexa Fluor® 647-labeled ADP tracer in HEPES buffered saline, Cat. No. PV5098), proprietary TR-FRET dilution buffer pH 7.5 (Cat. No. PV3574).
PIK3CD substrate Phosphatidylinositol was obtained from Invitrogen (vesicules consisting of 2 mM PI in 50 mM HEPES pH7.5; Cat. No. PV5371). PIK3CG substrate Phosphatidylinositol-4,5-bisphosphate (PIP(4,5)2 was obtained from Invitrogen (PIP2:PS large unilamellar vesicules consisting of 1 mM PIP2: 19 mM PS in 50 mM HEPES pH7.5, 3 mM MgCl2, 1 mM EGTA; Cat. No. PV5100).
Time-Resolved Fluorescence Resonance Energy Transfer (TR-FRET) is a technology based on energy transfer between two adjacent dyes, from an excited electron in one dye (the donor) to an electron of an adjacent dye (the acceptor) through resonance, then released as a photon. This energy transfer is detected by an increase in the fluorescence emission of the acceptor, and a decrease in the fluorescence emission of the donor. TR-FRET assays for protein kinases use a long-lifetime lanthanide Terbium or Europium chelates as the donor species which overcome interference from compound autofluorescence or light scatter from precipitated compounds, by introducing a delay after excitation by a flashlamp excitation source. Results are often expressed as a ratio of the intensities of the acceptor and donor fluorophores.
(In general: Time-resolved FRET reads energy transfer from a long-lived donor to a nearby acceptor.)

On to `COC[C@H]1COC(=O)N1c1cc(-c2cnc(N)nc2C(F)(F)F)nc(N2CCOCC2)n1` [Example 5, (S)-3-(2′-Amino-2-morpholin-4-yl-4′-trifluoromethyl-[4,5′]bipyrimidinyl-6-yl)-4-methoxymethyl-oxazolidin-2-one], for which the IC50 turned out to be 4 nM.

Turning to `Nc1ncc(-c2cc(N3C(=O)OC4C(O)CCC43)nc(N3CCOCC3)n2)c(C(F)(F)F)n1` (single isomer, unassigned) [Example 22B], the IC50 was determined as 5 nM.

As to `C[C@H]1[C@@H](CO)OC(=O)N1c1cc(-c2cnc(N)nc2C(F)(F)F)nc(N2CCOCC2)n1` [Example 19, (4S,5S)-3-(2′-Amino-2-morpholin-4-yl-4′-trifluoromethyl-[4,5′]bipyrimidinyl-6-yl)-5-hydroxymethyl-4-methyl-oxazolidin-2-one], the IC50 was 9 nM.

As for `C[C@H]1OC(=O)N(c2cc(-c3cnc(N)nc3C(F)(F)F)nc(N3CCOC[C@@H]3C)n2)[C@H]1CO` [Example 10, (4S,5R)-3-[2′-Amino-2-((S)-3-methyl-morpholin-4-yl)-4′-trifluoromethyl-[4,5′]bipyrimidinyl-6-yl]-4-hydroxymethyl-5-methyl-oxazolidin-2-one], the IC50 was determined as 12 nM.

As to `Nc1ncc(-c2cc(N3C(=O)O[C@@H]4[C@@H](O)CC[C@@H]43)nc(N3CCOCC3)n2)c(C(F)(F)F)n1` (racemic) [Example 22, (3aR*,6R*,6aR*)-3-(2′-Amino-2-morpholino-4′-(trifluoromethyl)-[4,5′-bipyrimidin]-6-yl)-6-hydroxyhexahydro-2H-cyclopenta[d]oxazol-2-one], the IC50 was 6 nM.

Consider `C[C@H](O)CC1OC(=O)N(c2cc(-c3cnc(N)nc3C(F)(F)F)nc(N3CCOCC3)n2)[C@H]1C` (single isomer, unassigned) [Example 25], for which the IC50 is 7 nM.

For the compound `[2H]C1([2H])OC([2H])([2H])C([2H])([2H])N(c2nc(-c3cnc(N)nc3C(F)(F)F)cc(N3C(=O)O[C@H](C)[C@@H]3CO)n2)C1([2H])[2H]` [Example 8], the IC50 stood at 21 nM.

For the compound `C[C@H]1OC(=O)N(c2cc(-c3cnc(N)nc3C(F)(F)F)nc(N3CCOCC3)n2)[C@H]1COC=O` [Example 12, Formic acid (4S,5R)-3-(2′-amino-2-morpholin-4-yl-4′-trifluoromethyl-[4,5′]bipyrimidinyl-6-yl)-5-methyl-2-oxo-oxazolidin-4-ylmethyl ester], the IC50 came out at 59 nM.
